Reference: patent US20170168067A1, “CHROMATIN-ACTIVITY-BASED CHEMOPROTEOMIC (CHAC) METHODS AND SYSTEMS FOR DISEASE MARKER DISCOVERY AND DEVELOPMENT” (The University of North Carolina at Chapel Hill, priority 2014, published 2017)
Peptide text beside a SMILES is read from it. * marks the point of attachment. Cbz = O=C(OCc1ccccc1)*

What was measured:
c-Myc [1] = experiment: c-Myc accumulation after proteasome inhibition, immunoblot; assay type: cell-based, mouse; settings: LPS-primed, 10 mM MG-132
Procedure: Raw264.7 or TLR4/MD2/CD14 293 cell lines were primed with 100 ng/ml^−1 LPS for 24 h and then treated with 1 mg/ml^−1 cycloheximide (Sigma-Aldrich; #C4859) for indicated time. Cells were harvested and subjected to immunoblot analysis by using anti-c-Myc antibody. Exposed films of immunoblot were scanned and quantified by ImageJ densitometry software. The intensity of each band was plotted in scatter plot and c-Myc half-life was determined on computed curve. Raw264.7 cells were primed with 100 ng/ml^−1 LPS for 24 h and then treated with 10 mM MG-132 for time indicated. C-Myc accumulation was reflected in immunoblot against c-Myc by short- and long-exposure. b-Actin and g-Tubulin were represented as loading controls.

G9a [2] = experiment: ChIP abundance of G9a within T-class promoters; assay type: cell-based, mouse; settings: pre-treated TL cells
Procedure: (§1) ChIP experiments for studying histone modifiers and TFs were carried out in dual crosslinking way (Porro et al., 2007) with minor modifications. Cells were fixed using 2 mM DSG (disuccinimidyl glutarate, ProteomChem #c1104) for 45 min. Formaldehyde (1% v/v) was then added and incubated for 15 min. Crosslinking reactions were quenched by adding glycine to 0.1 M, followed by PBS washing. Cells were scraped and nuclei were pelleted by 0.5% NP-40 lysis buffer (50 mM pH 8.0 Tris-HCl, 85 mM KCl, 0.5% NP-40). The nuclear fraction was extracted with RIPA buffer (50 mM pH 8.0 Tris-HCl, 150 mM NaCl, 1 mM EDTA, 1% Triton-X-100, 0.1% SDS, 0.1% sodium deoxycholate) and sonicated to 200 to 1,000 bp DNA fragments, then incubated overnight with the antibody. The antibody complexes were linked to protein A/salmon sperm DNA beads (Cell Signaling, cat #9007) and washed thoroughly. The complexes were then eluted from the beads by 1% SDS, and incubated with NaCl to reverse the crosslinked products. Later, proteins were digested by protease-K and the released DNA was purified by QIAquick PCR purification Kit (Qiagen, cat #28104), and processed to quantitative PCR assay. ChIP experiments for studying histone post-PTMs were started from a one-step fixation of 1% (v/v) formaldehyde for 10 min, followed by the same steps as dual crosslinking ChIP described above.

Raw264.7 cells = experiment: Clonogenic survival assay; assay type: cell-based, mouse; parameters: dose or concentration left out as unconfirmed
Procedure: Raw264.7 cells were counted and plated in six-well cell culture plates with 50, 100 and 200 viable cells in duplicated wells. Cells were primed with 100 ng/ml^−1 LPS for […] to reach the condition of ET and replenished with fresh media. […] After 9-day cell growth, cell colonies were washed with PBS, fixed with a mixture of methanol-acetic acid (3:1 in volume ratio) for 10 min, stained with 10% Giemsa (Ricca Chemical Company, Arlington, Tex., United States of America) for 30 min, gently washed with water and air dried. The colonies containing more than 20 cells were counted and the percentage of the survived cells under each condition was determined compared with the number of colonies on non-LPS or UNC0638-treated plates.

BMDM secretome = experiment: Label-free quantitative analysis of macrophage secretome; assay type: cell-based, mouse; settings: BMDMs under TL pre-treated with 250 nM for 16 h
Procedure: Referring now to FIG. 1, cells were then either left unstimulated (N) or subjected to a single LPS challenge at 500 ng/ml^−1 for indicated hours (NL) or first primed with 100 ng/ml^−1 LPS to induce the ET for 24 h, followed by the second LPS challenge at 500 ng/ml^−1 for indicated hours (TL). Before the LPS challenge, cells were washed once and cultured in serum-free DMEM without phenolred, containing 1 mM sodium pyruvate and 10 mM L-glutamine. The secreted proteins were harvested and prepared (Meissner et al., 2013).
LFQ secretome analyses were performed via reversed phase LC-MS/MS using a Proxeon 1000 nano LC system coupled to an Q Exactive mass spectrometer (Thermo Scientific). […]
Label-free quantitation was based on the peak area (Cox et al., 2008; Gunawardena et al., 2013; Gunawardena et al., 2011; Porro et al., 2007). The measured area under the curve of m/z and retention time aligned extracted ion chromatogram (XIC) of a peptide was performed via the label-free quantitation module found in MaxQuant™ (vera 1.3.0.5) (Cox et al., 2008). All replicates (biological and technical replicates) of each experimental conditions: N, NL-16 h, TL-16 h, were included in the LFQ experimental design with protein-level quantitation and normalization performed using unique and razor peptide features corresponding to identifications filtered with a peptide FDR of 0.01 and protein FDR of 0.05. […]

H3K27 = experiment: immunoblot analysis of methylated H3K27; assay type: cell-based, mouse; settings: treated cells
Procedure: (§2) Core histone proteins were prepared by Histone Purification Mini Kit (Active Motif; cat#40026). Adhered cells were washed with prewarmed serum-free media twice and were then harvested. The pellet was lysed with 1.5 ml extraction buffer per 2×10^7 cells and homogenized by repetitive pipetting. The cell lysate was processed under agitation for 2 h at 4° C. before the crude histone was clarified, neutralized and loaded onto the column. Histone proteins were purified by a C8 column and were precipitated by 4% perchloric acid according to the manufacturer's instructions and were resolved in HPLC water. All steps were processed on ice or in cold room, for the maximum preservation of histone modifications.

c-Myc [3] = experiment: ChIP-qPCR binding of c-Myc to gene loci; assay type: cell-based, mouse
Procedure: as §1

HDAC1 = experiment: ChIP-PCR binding of HDAC1 to T-gene (IL6) promoter; assay type: cell-based, mouse; settings: treated BMDMs during ET
Procedure: as §1

H3K36me2 = experiment: immunoblot analysis of dimethylated H3K36; assay type: cell-based, mouse; settings: treated vs non-treated BMDMs, TL
Procedure: as §2

MTA1 = experiment: ChIP-PCR binding of MTA1 to T-class genes; assay type: cell-based, mouse; settings: treated BMDMs
Procedure: as §1

H3K9me2 = experiment: ChIP analysis with anti-H3K9me2 antibody in BMDMs; assay type: cell-based, mouse; settings: BMDMs treated prior to LPS stimulation; inhibitor pre-treated TL cells compared with NL
Procedure: as §1

G9a [4] = target: T1, G9a (Homo sapiens, UniProt Q96KQ7); settings: Vedadi et al., 2011; cited from earlier work
T1 sequence (Q96KQ7 1-1210): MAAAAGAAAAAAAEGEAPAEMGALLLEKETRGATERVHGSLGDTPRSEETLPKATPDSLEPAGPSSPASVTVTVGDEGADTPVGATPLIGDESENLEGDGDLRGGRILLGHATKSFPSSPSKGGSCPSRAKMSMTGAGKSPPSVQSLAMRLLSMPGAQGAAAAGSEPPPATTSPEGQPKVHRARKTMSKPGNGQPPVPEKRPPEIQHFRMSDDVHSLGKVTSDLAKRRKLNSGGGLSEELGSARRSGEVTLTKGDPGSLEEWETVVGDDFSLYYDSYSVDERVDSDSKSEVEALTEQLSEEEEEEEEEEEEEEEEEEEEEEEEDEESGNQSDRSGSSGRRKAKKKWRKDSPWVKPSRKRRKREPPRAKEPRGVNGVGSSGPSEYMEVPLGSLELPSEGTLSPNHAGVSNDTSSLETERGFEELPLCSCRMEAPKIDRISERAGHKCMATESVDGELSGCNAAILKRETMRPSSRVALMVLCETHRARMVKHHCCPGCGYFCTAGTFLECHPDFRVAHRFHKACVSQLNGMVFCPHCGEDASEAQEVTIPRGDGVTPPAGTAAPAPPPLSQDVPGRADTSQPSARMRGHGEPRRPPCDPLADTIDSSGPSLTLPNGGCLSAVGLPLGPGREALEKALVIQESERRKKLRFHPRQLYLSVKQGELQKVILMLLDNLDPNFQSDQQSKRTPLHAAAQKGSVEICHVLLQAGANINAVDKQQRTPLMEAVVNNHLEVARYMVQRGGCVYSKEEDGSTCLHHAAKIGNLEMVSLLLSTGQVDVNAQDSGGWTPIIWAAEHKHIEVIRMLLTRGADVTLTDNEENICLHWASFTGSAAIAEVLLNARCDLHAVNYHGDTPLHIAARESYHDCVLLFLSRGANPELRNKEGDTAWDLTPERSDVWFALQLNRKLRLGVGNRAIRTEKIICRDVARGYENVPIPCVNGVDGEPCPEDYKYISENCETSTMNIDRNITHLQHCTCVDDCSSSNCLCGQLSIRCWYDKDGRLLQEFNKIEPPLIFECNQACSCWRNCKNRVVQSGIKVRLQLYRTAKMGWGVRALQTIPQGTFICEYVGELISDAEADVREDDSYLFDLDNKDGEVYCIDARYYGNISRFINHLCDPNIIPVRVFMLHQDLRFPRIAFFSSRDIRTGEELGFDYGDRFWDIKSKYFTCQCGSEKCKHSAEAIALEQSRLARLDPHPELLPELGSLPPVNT

Question: With `CC(C)C[C@@H](C=O)NC(=O)[C@H](CC(C)C)NC(=O)[C@H](CC(C)C)NC(=O)OCc1ccccc1` [MG-132] (Cbz-Leu-Leu-Leu-aldehyde) as the compound, how does the “c-Myc level with post-treatment time” value (c-Myc [1]; G9a-KD Raw264.7 cells) read?
Answer: The value was “progressive accumulation”.

Question: What about the “c-Myc level with longer post-treatment time” value (c-Myc [1]; wild-type Raw264.7 cells (presence of G9a)) of the same compound?
Answer: The value was “reduced”.

Question: For `O=C(CCCCCCC(=O)Nc1ccccc1)NO` [SAHA], which “abundance of G9a within the T-class promoters” value (G9a [2]) is on record?
Answer: The value was “reduced”.

Question: Which “percentage of survived cells” value (Raw264.7 cells; cells under TL, 9-day growth) does the source give for `COc1cc2c(NC3CCN(C(C)C)CC3)nc(C3CCCCC3)nc2cc1OCCCN1CCCC1` [UNC0638, 2-Cyclohexyl-N-(1-isopropylpiperidin-4-yl)-6-methoxy-7-(3-(pyrrolidin-1-yl)propoxy) quinazolin-4-amine] here?
Answer: Its value is “significantly reduced”.

Question: What about the “percentage of survived cells” value (Raw264.7 cells; non-treated (non-LPS) wild-type cells) of the same compound?
Answer: Its value is “little effect”.

Question: What about the “share of 992 identified proteins showing repressed releases whose secretion levels increased” value (BMDM secretome) of the same compound?
Answer: Its value is 45%.

Question: What about the “methylated level of H3K27” value (H3K27) of the same compound?
Answer: Its value is “reduced”.

Question: And the “c-Myc binding to the NT-genes” value (c-Myc [3])?
Answer: Its value is “not affected”.

Question: What about the “c-Myc binding to the loci of IL6” value (c-Myc [3]; treated BMDMs under TL) of the same compound?
Answer: The value was “diminished”.

Question: And the “c-Myc binding to IL6, IP-10 and p21” value (c-Myc [3]; under TL)?
Answer: The value was “reduced”.

Question: What about the “IL6-specific binding of HDAC1” value (HDAC1) of the same compound?
Answer: The value was “diminished”.

Question: And the “level of H3K36me2” value (H3K36me2)?
Answer: The value was “decreased”.

Question: What about the “TL-specific binding of MTA1 to T-class genes” value (MTA1) of the same compound?
Answer: Its value is “diminished”.

Question: What about the “change in H3K9me2 (ChIP)” value (H3K9me2) of the same compound?
Answer: The value was “greater decreases”.

Question: And the “change in abundance of G9a” value (G9a [4])?
Answer: Its value is “little change”.
